In US9522888B2, “Substituted bicyclic compounds” (BRISTOL-MYERS SQUIBB COMPANY, priority 2014, dated 2016):

Experiments:
[1] = molecular target: S1P1 (membranes prepared from S1P1/CHO cells) (Homo sapiens (Human), UniProt P21453); assay: Receptor [35S] GTPγS binding assay (S1P1 GTPγS); assay type: biochemical; details: phosphate examples; read-out: S1P1 GTPγS
Summary of the method: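 Agonist-stimulated [35S]GTPγS binding (0.2 nM final) to S1P1/CHO membranes, 3 μg protein/well, measured after 45 min at room temperature. Buffer contained 10 μM GDP, saponin and fatty-acid-free BSA at pH 7.5. Compounds tested as 11-point 3-fold series; bound label captured on filters, scintillation-counted, EC50 reported.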

[2] = molecular target: S1P3 (membranes prepared from EDG3-Gal5-bla HEK293T cells) (Homo sapiens (Human), UniProt Q99500); assay: Receptor [35S] GTPγS binding assay (S1P3 GTPγS); assay type: biochemical; details: phosphate examples; read-out: S1P3 GTPγS
Summary of the method: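 Membranes (3 μg protein/well) from S1P1/CHO cells or EDG3-Gal5-bla HEK293T cells (S1P3) were incubated 45 min at room temperature with 0.2 nM final [35S]GTPγS in HEPES pH 7.5 buffer with 10 μM GDP, MgCl2 and saponin. Bound label counted after filtration; EC50 from 11-point, 3-fold dilutions.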

human S1P1 = human S1P1 (Homo sapiens (Human), UniProt P21453); assay: S1P1 binding assay (33P-S1P radioligand competition, CHO cell membranes); details: phosphate examples; read-out: S1P1 Binding
Summary of the method: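 Radioligand is 33P-S1P, competing for membranes from human S1P1-expressing CHO cells. Membranes resuspended in 50 mM HEPES pH 7.5, 100 mM NaCl, 1 mM MgCl2, 2 mM EDTA.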

hS1P1/CHO cells = hS1P1/CHO cells (Homo sapiens (Human), UniProt P21453); assay: hS1P1 ERK phosphorylation (S1P1 pERK); assay type: cell-based; details: phosphate examples
Summary of the method: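 Agonism read as ERK phosphorylation (SureFire pERK) in hS1P1/CHO lysates, normalised to the maximal effect of 10 μM S1P. Cells were held 2 h in serum-free medium, then treated with compound for 7 min at 37° C. in HBSS/20 mM HEPES.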

S1P3 (membranes prepared from EDG3-Gal5-bla HEK293T cells), sequence (Q99500 whole entry): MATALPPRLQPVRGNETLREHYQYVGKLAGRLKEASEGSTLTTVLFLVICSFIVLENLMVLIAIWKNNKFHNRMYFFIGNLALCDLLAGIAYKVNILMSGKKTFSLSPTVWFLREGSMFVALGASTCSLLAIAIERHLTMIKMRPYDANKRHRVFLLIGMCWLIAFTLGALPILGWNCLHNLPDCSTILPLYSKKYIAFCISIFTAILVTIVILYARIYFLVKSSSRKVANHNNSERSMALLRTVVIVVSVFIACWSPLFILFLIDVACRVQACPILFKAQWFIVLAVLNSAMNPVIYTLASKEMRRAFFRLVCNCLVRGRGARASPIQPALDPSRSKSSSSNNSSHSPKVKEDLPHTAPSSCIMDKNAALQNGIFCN
human S1P1, sequence (P21453 whole entry): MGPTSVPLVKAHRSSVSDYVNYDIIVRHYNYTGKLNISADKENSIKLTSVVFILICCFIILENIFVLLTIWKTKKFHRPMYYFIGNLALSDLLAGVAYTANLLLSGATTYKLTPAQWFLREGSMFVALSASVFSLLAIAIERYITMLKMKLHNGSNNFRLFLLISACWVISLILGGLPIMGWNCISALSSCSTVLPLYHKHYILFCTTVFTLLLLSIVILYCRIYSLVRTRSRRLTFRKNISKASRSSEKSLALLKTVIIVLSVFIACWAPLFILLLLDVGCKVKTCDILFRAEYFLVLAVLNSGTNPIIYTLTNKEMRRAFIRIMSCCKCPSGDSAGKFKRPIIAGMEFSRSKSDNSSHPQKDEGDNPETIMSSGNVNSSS
hS1P1/CHO cells, sequence (P21453 whole entry): as above
S1P1 (membranes prepared from S1P1/CHO cells), sequence (P21453 whole entry): as above

Structure (SMILES) | EC50 [1] [µM] | EC50 [2] [µM] | IC50 (human S1P1) [µM] | EC50 (hS1P1/CHO cells) [µM]
CC(C)OCCC[C@@H]1CCc2cc([C@@H]3CC[C@@](N)(COP(=O)(O)O)C3)ccc2C1 [compound 602] | < 0.01 | > 0.625 | < 0.01 | < 0.01
N[C@@]1(COP(=O)(O)O)CC[C@@H](c2ccc3c(c2)CC[C@@H](CCc2ccc4ccccc4n2)C3)C1 [compound 605] | < 0.01 | > 0.625 | < 0.01 | < 0.01
CC(C)OCCCC[C@H]1CCc2cc([C@H]3CC[C@](N)(COP(=O)(O)O)C3)ccc2C1 [compound 610] | < 0.01 | > 0.1 | 0.01 to 0.1 | < 0.01
N[C@]1(COP(=O)(O)O)CC[C@H](c2ccc3c(c2)CC[C@H](CS(=O)(=O)c2ccccc2)C3)C1 [compound 618] | 0.1 to 1 | > 0.625 | 0.1 to 1 | < 0.01
CCCCC(C)(C)C(=O)OC1CCc2cc([C@H]3CC[C@@](N)(COP(=O)(O)O)C3)ccc2C1 (some centres unmarked) [compound 624] | < 0.01 | > 0.625 | 1 to 10 | 0.1 to 1
CCCCCCNC(=O)OC1CCc2cc([C@H]3CC[C@@](N)(COP(=O)(O)O)C3)ccc2C1 (some centres unmarked) [compound 626] | 0.01 to 0.1 | > 0.625 | 0.01 to 0.1 | < 0.01
CCCCCC(=O)NC1CCc2cc([C@H]3CC[C@@](N)(COP(=O)(O)O)C3)ccc2C1 (some centres unmarked) [compound 629] | 0.1 to 1 | > 0.625 | 0.1 to 1 | < 0.01
COCCC/C=C/[C@H]1CCc2cc([C@H]3CC[C@](N)(COP(=O)(O)O)C3)ccc2C1 [compound 638] | 0.01 to 0.1 | > 0.1 | < 0.01 | < 0.01
C=CCC/C=C/[C@@H]1CCc2cc([C@H]3CC[C@](N)(COP(=O)(O)O)C3)ccc2C1 [compound 639] | 0.01 to 0.1 | > 0.625 | 0.01 to 0.1 | 0.01 to 0.1
COCCC/C=C/[C@@H]1CCc2cc([C@H]3CC[C@](N)(COP(=O)(O)O)C3)ccc2C1 [compound 640] | < 0.01 | > 0.625 | < 0.01 | < 0.01
COc1ccccc1/C=C/[C@@H]1CCc2cc([C@H]3CC[C@](N)(COP(=O)(O)O)C3)ccc2C1 [compound 641] | 0.01 to 0.1 | > 0.625 | 0.1 to 1 | 0.01 to 0.1
N[C@]1(COP(=O)(O)O)CC[C@H](c2ccc3c(c2)CC[C@@H](/C=C/C2CCOCC2)C3)C1 [compound 642] | < 0.01 | > 0.625 | 0.01 to 0.1 | < 0.01
COc1cccc(/C=C/[C@@H]2CCc3cc([C@H]4CC[C@](N)(COP(=O)(O)O)C4)ccc3C2)c1 [compound 643] | 0.01 to 0.1 | > 0.625 | < 0.01 | 0.01 to 0.1
Cc1cccc(/C=C/[C@@H]2CCc3cc([C@H]4CC[C@](N)(COP(=O)(O)O)C4)ccc3C2)c1 [compound 644] | 0.01 to 0.1 | > 0.625 | 0.1 to 1 | 0.1 to 1
CC(C)CC/C=C/[C@@H]1CCc2cc([C@H]3CC[C@](N)(COP(=O)(O)O)C3)ccc2C1 [compound 645] | 0.01 to 0.1 | > 0.625 | 0.1 to 1 | 0.01 to 0.1
CC/C=C/CC[C@@H]1CCc2cc([C@H]3CC[C@](N)(COP(=O)(O)O)C3)ccc2C1 [compound 650] | 0.1 to 1 | > 0.625 | 0.01 to 0.1 | 0.01 to 0.1
C/C=C/CCCC[C@H]1CCc2cc([C@H]3CC[C@](N)(COP(=O)(O)O)C3)ccc2C1 [compound 659] | < 0.01 | > 0.625 | < 0.01 | 0.01 to 0.1
C/C=C\CCCC[C@H]1CCc2cc([C@H]3CC[C@](N)(COP(=O)(O)O)C3)ccc2C1 [compound 660] | < 0.01 | > 0.625 | < 0.01 | 0.01 to 0.1
C/C=C\CCCC[C@@H]1CCc2cc([C@H]3CC[C@](N)(COP(=O)(O)O)C3)ccc2C1 [compound 661] | < 0.01 | > 0.625 | < 0.01 | < 0.01
C/C(=N\OCc1ccccc1)[C@@H]1CCc2cc([C@H]3CC[C@](N)(COP(=O)(O)O)C3)ccc2C1 [compound 664] | < 0.01 | > 0.625 | < 0.01 | < 0.01
CCCCO/N=C(\C)[C@@H]1CCc2cc([C@H]3CC[C@](N)(COP(=O)(O)O)C3)ccc2C1 [compound 665] | < 0.01 | > 0.625 | < 0.01 | 0.01 to 0.1

More lines, now with the values ahead:

EC50 [1] [µM] | EC50 [2] [µM] | IC50 (human S1P1) [µM] | EC50 (hS1P1/CHO cells) [µM] | Structure (SMILES)
0.01 to 0.1 | > 0.625 | 0.01 to 0.1 | < 0.01 | CCCC[C@H]1CCCC2(CCc3cc([C@H]4CC[C@](N)(COP(=O)(O)O)C4)ccc3C2)O1 (some centres unmarked) [compound 632]
0.1 to 1 | > 0.625 | 0.01 to 0.1 | < 0.01 | CCCC[C@@H]1CCCC2(CCc3cc([C@H]4CC[C@](N)(COP(=O)(O)O)C4)ccc3C2)O1 (some centres unmarked) [compound 633]
0.01 to 0.1 | > 0.625 | < 0.01 | < 0.01 | CCCCC1CCc2cc([C@H]3CC[C@](N)(COP(=O)(O)O)C3)ccc2C1=O (some centres unmarked) [compound 635]
0.01 to 0.1 | > 0.625 | 0.01 to 0.1 | 0.01 to 0.1 | CCCC/C=C/[C@@H]1CCc2cc([C@H]3CC[C@](N)(COP(=O)(O)O)C3)ccc2C1 [compound 636]
0.01 to 0.1 | > 0.625 | < 0.01 | 0.01 to 0.1 | CCCC/C=C/[C@@H]1CCc2cc([C@H]3CC[C@](N)(COP(=O)(O)O)C3)ccc2C1 [compound 637]
0.01 to 0.1 | > 0.625 | 0.01 to 0.1 | 0.01 to 0.1 | CCCCC=C[C@H]1CCc2cc([C@H]3CC[C@](N)(COP(=O)(O)O)C3)ccc2C1 [compound 648]
0.01 to 0.1 | > 0.625 | 0.01 to 0.1 | 0.01 to 0.1 | CC/C=C\CC[C@@H]1CCc2cc([C@H]3CC[C@](N)(COP(=O)(O)O)C3)ccc2C1 [compound 651]
0.01 to 0.1 | > 0.625 | 0.01 to 0.1 | 0.01 to 0.1 | C/C=C\CCC[C@@H]1CCc2cc([C@H]3CC[C@](N)(COP(=O)(O)O)C3)ccc2C1 [compound 656]
< 0.01 | > 0.625 | 0.01 to 0.1 | 0.01 to 0.1 | C/C=C\CCC[C@H]1CCc2cc([C@H]3CC[C@](N)(COP(=O)(O)O)C3)ccc2C1 [compound 657]
0.01 to 0.1 | > 0.625 | < 0.01 | < 0.01 | CC/C=C/CC[C@H]1CCc2cc([C@H]3CC[C@](N)(COP(=O)(O)O)C3)ccc2C1 [compound 658]
< 0.01 | > 0.625 | < 0.01 | 0.01 to 0.1 | CCCC[S+]([O-])C[C@@H]1CCc2cc([C@H]3CC[C@](N)(COP(=O)(O)O)C3)ccc2C1 (some centres unmarked) [compound 668]
